# How the values were obtained:
# [1] = tested on: plasma samples from non schizophrenic individuals; test: Enzyme immunoassay: binding of biotin-labeled peptide on streptavidine coated tubes to control plasma; parameters: species or system human; conditions: 50 control individuals; FIG. 3
# Protocol: (§1) • 1. Patients and control persons—Thirty-nine schizophrenic patients participated in this study. The following parameters were recorded: gender, age, duration of schizophrenia, number of hospitalizations, years of education and the psychiatric status (PANSS). Fifty plasma samples were obtained from a local blood bank. • 2. Plasma—Venous blood was drawn with heparin as […] from patients and control subjects. Plasma was obtained after centrifugation (4000 g; 15 mins. 4° C.). • 3. Peptide synthesis and biotin labeling—The peptides were synthesized on an Abimed 522 at a 10 micromol scale by Eurosequence b.v., (Nijenborgh 4: 9747 AG Groningen; The Netherlands) and labeled at the amino terminal with biotin containing a six carbon spacer. Peptide purity was routinely assessed by RP-HPLC and, when considered necessary, by laser desorption mass spectroscopy. The peptides were routinely dissolved in 1 ml water/DMF/DMSO (1:1:1; v/v/v). • 4. […] The absorbence was read at 450 nm spectrophotometrically. […]
# (§2) Therefore, an experiment was carried out with the biotin-LVVGLCK as follows: the peptide was biotin-labeled and coated onto streptavidine coated tubes as explained above. Plasma samples of 39 schizophrenic patients and 50 control non schizophrenic individuals were tested with the coated peptide and the level of binding was determined by the enzyme immunoassay described above.
# [2] = tested on: autoantibodies in plasma samples from schizophrenic patients; test: Enzyme immunoassay: binding of biotin-labeled peptide on streptavidine coated tubes to plasma of schizophrenic patients; parameters: species or system human; conditions: 39 schizophrenic patients; FIG. 3
# Protocol: as §1, §2
substance,measurement,setting,value
LVVGLCK,"level of binding, mean value and standard deviation, plasma of non schizophrenic individuals",[1],0.46±0.21 O.D.
same,"level of binding, mean value and standard deviation, plasma of schizophrenic patients",[2],1.47±0.65 O.D.
